System: SARS-CoV-2
Assay: microbe, parasite or virus in culture
Settings: Severe acute respiratory syndrome coronavirus 2, Vero C1008, 48 h

## CC(CCc1ccccc1)NC(C)C(O)c1ccc(O)cc1 (centres undefined) [NYLIDRIN]
  IC50: > 20 µM
read-out: pIC50 (converted)
  IC50: > 20 µM

## COc1cc(Nc2ncc(F)c(Nc3ccc4c(n3)N(COP(=O)(O)O)C(=O)C(C)(C)O4)n2)cc(OC)c1OC [FOSTAMATINIB]
  IC50: > 20 µM
read-out: pIC50 (converted)
  IC50: > 20 µM

## CNc1ccc(/C=C/c2ccc(OCCOCCOCCF)nc2)cc1 [FLORBETAPIR]
  IC50: > 20 µM
read-out: pIC50 (converted)
  IC50: > 20 µM

## CCCCOC(=O)c1ccc(N)cc1 [BUTAMBEN]
  IC50: > 20 µM
read-out: pIC50 (converted)
  IC50: > 20 µM

## CCN1CCC(=C(c2ccccc2)c2ccccc2)C1 [PRIDEFINE]
  IC50: > 20 µM
read-out: pIC50 (converted)
  IC50: > 20 µM

## OC(CCCN1CCCCC1)(c1ccccc1)c1ccccc1 [DIPHENIDOL]
  IC50: > 20 µM
read-out: pIC50 (converted)
  IC50: > 20 µM

## NC(=O)c1cnccn1 [PYRAZINAMIDE]
  IC50: > 20 µM
read-out: pIC50 (converted)
  IC50: > 20 µM

## CCC[C@@]1(CCc2ccccc2)CC(O)=C([C@H](CC)c2cccc(NS(=O)(=O)c3ccc(C(F)(F)F)cn3)c2)C(=O)O1
  IC50: > 20 µM
read-out: pIC50 (converted)
  IC50: > 20 µM

## COc1ccc2c(OC3CC4C(=O)NC5(C(=O)NS(=O)(=O)C6CC6)CC5/C=C\CCCCN(C)C(=O)C4C3)cc(-c3nc(C(C)C)cs3)nc2c1C (centres undefined)
  IC50: > 20 µM
read-out: pIC50 (converted)
  IC50: > 20 µM

## OC(CSc1ncnc2[nH]cnc12)CN1CCN(C(c2ccc(F)cc2)c2ccc(F)cc2)CC1 (centres undefined) [CARSATRIN]
  IC50: > 20 µM
read-out: pIC50 (converted)
  IC50: > 20 µM

## CC(C)(C)NCC(O)c1cc(Cl)c(N)c(Cl)c1 (centres undefined) [CLENBUTEROL]
  IC50: > 20 µM
read-out: pIC50 (converted)
  IC50: > 20 µM

## CNCCOC(c1ccccc1)c1ccccc1C (centres undefined) [TOFENACIN]
  IC50: > 20 µM
read-out: pIC50 (converted)
  IC50: > 20 µM

## CN(CCCN1c2ccccc2CCc2ccccc21)CC(=O)c1ccc(Cl)cc1 [LOFEPRAMINE]
  IC50: > 20 µM
read-out: pIC50 (converted)
  IC50: > 20 µM

## CN(C)C1CC(c2ccccc2)c2ccccc21 (centres undefined)
  IC50: > 20 µM
read-out: pIC50 (converted)
  IC50: > 20 µM

## COc1ccc(C(=O)NC2(C(=O)O)Cc3ccccc3C2)cc1OCCc1cccc(C)c1 [FIPAXALPARANT]
  IC50: > 20 µM
read-out: pIC50 (converted)
  IC50: > 20 µM

## CN1[C@@H]2C[C@@H](OC(=O)[C@H](CO)c3ccccc3)C[C@H]1[C@@H]1O[C@@H]12 [SCOPOLAMINE]
  IC50: > 20 µM
read-out: pIC50 (converted)
  IC50: > 20 µM

## O=C(Oc1ccccc1C(=O)O)c1ccccc1O [SALSALATE]
  IC50: > 20 µM
read-out: pIC50 (converted)
  IC50: > 20 µM

## C[C@]1(O)CC[C@H]2[C@@H]3CC[C@@]45O[C@]4(C)C(O)=C(C#N)C[C@]5(C)[C@H]3CC[C@@]21C [EPOSTANE]
  IC50: > 20 µM
read-out: pIC50 (converted)
  IC50: > 20 µM

## CN1C(=O)C(O)N=C(c2ccccc2)c2cc(Cl)ccc21 (centres undefined) [TEMAZEPAM]
  IC50: > 20 µM
read-out: pIC50 (converted)
  IC50: > 20 µM

## Nc1ccncc1 [DALFAMPRIDINE]
  IC50: > 20 µM
read-out: pIC50 (converted)
  IC50: > 20 µM

## N#C[C@@H]1C[C@@H]2C[C@@H]2N1C(=O)[C@@H](N)C12CC3CC(CC(O)(C3)C1)C2 [SAXAGLIPTIN ANHYDROUS]
  IC50: > 20 µM
read-out: pIC50 (converted)
  IC50: > 20 µM

## CC(CCN1CCN(c2ccc(F)cc2)CC1)NC(=O)c1cccnc1 (centres undefined) [NIAPRAZINE]
  IC50: > 20 µM
read-out: pIC50 (converted)
  IC50: > 20 µM

## O=C1CC[C@@](c2ccccc2)(C2CCN(Cc3ccccc3)CC2)C(=O)N1 [DEXETIMIDE]
  IC50: > 20 µM
read-out: pIC50 (converted)
  IC50: > 20 µM

## OC[C@H]1O[C@@H](n2cnc3c(NC4CCCC4)ncnc32)[C@H](O)[C@@H]1O [N6-CYCLOPENTYLADENOSINE]
  IC50: > 20 µM
read-out: pIC50 (converted)
  IC50: > 20 µM

## C#C[C@@]1(O)CCC2C3CCc4cc(OC)ccc4C3CCC21C (some centres undefined)
  IC50: > 20 µM
read-out: pIC50 (converted)
  IC50: > 20 µM

## CNCCc1ccc(O)c(O)c1 [DEOXIEPINEPHRINE]
  IC50: > 20 µM
read-out: pIC50 (converted)
  IC50: > 20 µM

## CON(C)C(=O)N1N=C(c2cc(F)ccc2F)S[C@@]1(CCCN)c1ccccc1 [FILANESIB]
  IC50: > 20 µM
read-out: pIC50 (converted)
  IC50: > 20 µM

## OC[C@H]1O[C@@H]2O[C@H]3[C@H](O)[C@@H](O)[C@@H](O[C@H]4[C@H](O)[C@@H](O)[C@@H](O[C@H]5[C@H](O)[C@@H](O)[C@@H](O[C@H]6[C@H](O)[C@@H](O)[C@@H](O[C@H]7[C@H](O)[C@@H](O)[C@@H](O[C@H]8[C@H](O)[C@@H](O)[C@@H](O[C@H]1[C@H](O)[C@H]2O)O[C@@H]8CO)O[C@@H]7CO)O[C@@H]6CO)O[C@@H]5CO)O[C@@H]4CO)O[C@@H]3CO [BETADEX]
  IC50: > 20 µM
read-out: pIC50 (converted)
  IC50: > 20 µM

## O=c1cc(-c2ccccc2)oc2ccccc12 [FLAVONE]
  IC50: > 20 µM
read-out: pIC50 (converted)
  IC50: > 20 µM

## COc1ccn(C)c(=O)c1C#N [RICININE]
  IC50: > 20 µM
read-out: pIC50 (converted)
  IC50: > 20 µM

## Cc1ncc[nH]1
  IC50: > 20 µM
read-out: pIC50 (converted)
  IC50: > 20 µM

## N#Cc1cccc([C@H]2C=C(C(F)(F)F)NC3=C2C(=O)CCC3)c1
  IC50: > 20 µM
read-out: pIC50 (converted)
  IC50: > 20 µM

## CN(N=O)C(=O)N[C@@H](C=O)[C@@H](O)[C@H](O)[C@H](O)CO.CN(N=O)C(=O)N[C@H]1C(O)O[C@H](CO)[C@@H](O)[C@@H]1O
  IC50: > 20 µM
read-out: pIC50 (converted)
  IC50: > 20 µM

## CCN[C@H]1C[C@H](C)S(=O)(=O)c2sc(S(N)(=O)=O)cc21 [DORZOLAMIDE]
  IC50: > 20 µM
read-out: pIC50 (converted)
  IC50: > 20 µM

## Cc1ccc2c(c1)c1c3n2CCNC3CCC1 (centres undefined) [PIRLINDOLE]
  IC50: > 20 µM
read-out: pIC50 (converted)
  IC50: > 20 µM

## CO[C@H]1/C=C\C=C(\C)C(=O)NC2=CC(=O)C(NCCN(C)C)=C(C[C@@H](C)C[C@H](OC)[C@H](O)[C@@H](C)/C=C(/C)[C@@H]1OC(N)=O)C2=O
  IC50: > 20 µM
read-out: pIC50 (converted)
  IC50: > 20 µM

## CCCc1cc(C(N)=S)ccn1 [PROTIONAMIDE]
  IC50: > 20 µM
read-out: pIC50 (converted)
  IC50: > 20 µM

## NC(=O)NS(=O)(=O)c1ccc(N)cc1 [SULFACARBAMIDE]
  IC50: > 20 µM
read-out: pIC50 (converted)
  IC50: > 20 µM

## CN(C)CC/C=C1\c2ccccc2COc2ccccc21 [E-DOXEPIN]
  IC50: > 20 µM
read-out: pIC50 (converted)
  IC50: > 20 µM

## CN(C)[C@@H]1C(O)=C(C(N)=O)C(=O)[C@@]2(O)C(O)=C3C(=O)c4c(O)cccc4[C@@](C)(O)[C@H]3C[C@@H]12 [TETRACYCLINE]
  IC50: > 20 µM
read-out: pIC50 (converted)
  IC50: > 20 µM

## CCC1(c2ccccc2)C(=O)N(COC)C(=O)N(COC)C1=O [ETEROBARB]
  IC50: > 20 µM
read-out: pIC50 (converted)
  IC50: > 20 µM

## CC12C=CC(=O)C=C1CCC1C2CCC2(C)C(=O)CCC12 (centres undefined)
  IC50: > 20 µM
read-out: pIC50 (converted)
  IC50: > 20 µM

## OC[C@H]1O[C@@H](n2cnc3c2N=CNC[C@H]3O)C[C@@H]1O [PENTOSTATIN]
  IC50: > 20 µM
read-out: pIC50 (converted)
  IC50: > 20 µM

## COc1ccc2cc(CCC(C)=O)ccc2c1 [NABUMETONE]
  IC50: > 20 µM
read-out: pIC50 (converted)
  IC50: > 20 µM

## c1ccc(-c2ccc(C(c3ccccc3)n3ccnc3)cc2)cc1 (centres undefined) [BIFONAZOLE]
  IC50: > 20 µM
read-out: pIC50 (converted)
  IC50: > 20 µM

## CCN(CC)CCOCCOC(=O)C(CC)(CC)c1ccccc1 [OXELADIN]
  IC50: > 20 µM
read-out: pIC50 (converted)
  IC50: > 20 µM

## CCCC/N=C(/c1cc(Cl)ccc1O)c1ccccc1Cl [FENGABINE]
  IC50: > 20 µM
read-out: pIC50 (converted)
  IC50: > 20 µM

## NCCCCCC(=O)O [AMINOCAPROIC ACID]
  IC50: > 20 µM
read-out: pIC50 (converted)
  IC50: > 20 µM

## CNC(=O)CCN1CCN(CCC=C2c3ccccc3Sc3ccc(Cl)cc32)CC1
  IC50: > 20 µM
read-out: pIC50 (converted)
  IC50: > 20 µM

## O=C(O)c1cc(NC(=O)[C@@H](Cc2ccccc2F)NC(=O)c2cc3[nH]cnc3cc2C(=O)NCC2CCCCCC2)cc(C(=O)O)c1
  IC50: > 20 µM
read-out: pIC50 (converted)
  IC50: > 20 µM

## CCCCS(=N)(=O)CCC(N)C(=O)O (centres undefined) [BUTHIONINE SULFOXIMINE]
  IC50: > 20 µM
read-out: pIC50 (converted)
  IC50: > 20 µM

## COc1ccccc1OCC(O)CNC(C)C (centres undefined) [MOPROLOL]
  IC50: > 20 µM
read-out: pIC50 (converted)
  IC50: > 20 µM
